Here are results for one molecule from patent US4520022A, “Substituted vinyl cephalosporins” (priority 1983, dated 1985).

Molecules are shown by their SMILES. Converted amounts (≈) assume the structure as drawn. Where two headings read alike, the source gives them in different places.

Data set [1] has as its system bacteria. As to the kind of experiment: Antibacterial activity, general statements. To be noted: in words.
For data set [2], the system named is Gp Ib: S. aureus 193, BX-1633-2 A9606, A15092, Russell, A9602. To be noted: Staphylococcus aureus.
The test system of data set [3] is E. coli Juhl. Put plainly: Protective dose, mice infected with lethal inoculum, oral treatment, E. coli Juhl. The class given is in vivo.
Data set [4] can be described thus: Metabolism in the rat (urine after oral administration). To be noted: oral 100 mg/kg; urine 24 hours. It is filed as in vivo, Wister rats. On the procedure: Refer to Procedure 43. Compound No. 37 is the 3,4-dihydroxyphenyl compound and Compound No. 42 is the 3-methoxy-4-hydroxyphenyl compound.
Six male Wister rats (400-600 g) were placed in steel metabolic cages after the oral administration of Compound 37 at the dose of 100 mg/kg and urine was collected over a period of 24 hours. The rats were fed their regular diet and given water during the experiment.
The urine (ca. 90 ml) was adjusted to pH 3 with N hydrochloric acid and filtered to remove a precipitate. The filtrate was chromatographed on a column packed with 300 ml of HP-20 by eluting with 2 L of water and 2 L of 30% methanol under monitoring the HPLC. The fractions containing the bioactive components of the 30% methanol eluate were collected, concentrated to 10 ml and lyophilized to give 390 mg of brown solid. A solution of the solid in 20 ml of water was chromatographed on a column packed with 200 ml of the packing of a prepPAK-C18 cartridge (Waters) by eluting with water, 5% methanol, and 10% methanol, successively. The first half of the 5% methanol eluate was concentrated to 5 ml and lyophilized to give 44 mg of Compound 37 (70% pure) containing impurities derived from urine. The second half of the 5% methanol eluate was concentrated to 5 ml and lyophilized to give 36 mg of product, which was a mixture of Compound 37, Compound 42, and impurities derived from urine. […]

The nature of data set [5]: in vivo. To be noted: mouse; for half-life: T1/2.
The conditions of data set [6]: mouse, in vivo, po.
For data set [7], the system named is Gp Ia: S. aureus Smith A9537, A9497, Terajima, A9534, A9601. To be noted: Staphylococcus aureus.
For data set [8], the system named is S. aureus Smith. As to the kind of experiment: Protective dose, mice infected with lethal inoculum, oral treatment, S. aureus Smith. The class given is in vivo. To be noted: Staphylococcus aureus, po, 120 h, oral; 50% survival for 5 days; groups of 5 mice; read-out: Protective dose (PD50), S. aureus Smith.

For the molecule `C/C=C\C1=C(C(=O)O)N2C(=O)[C@@H](NC(=O)[C@H](N)c3ccc(O)c(O)c3)[C@H]2SC1` [Compound 37, 7β-[D(-)-2-Amino-2-(3,4-dihydroxyphenyl)acetamido]-3-[(Z)-1-propen-1-yl]-3-cephem-4-carboxylic Acid], in data set [1], the antibacterial activity result is “highly active substance against both the Gram+ and Gram- bacteria”. Moreover, the MIC in data set [2] (read-out: Minimum Inhibitory Concentration Gp Ib, Mueller-Hinton agar, run 2, average of five organisms) turned out to be 7.2 µg/mL (≈ 17.8 µM); in data set [2] (read-out: Minimum inhibitory Concentration Gp Ib, Test Medium Comparison, A: Mueller-Hinton agar, average values), 6.3 µg/mL (≈ 15.5 µM); in data set [2] (read-out: Minimum inhibitory Concentration Gp Ib, Test Medium Comparison, B: Nutrient agar, average values), 0.61 µg/mL (≈ 1.5 µM); in data set [7] (read-out: Minimum Inhibitory Concentration Gp Ia, Mueller-Hinton agar, run 2, average of five organisms) it was 6.3 µg/mL (≈ 15.5 µM); in data set [7] (read-out: Minimum inhibitory Concentration Gp Ia, Test Medium Comparison, A: Mueller-Hinton agar, average values), 4.8 µg/mL (≈ 11.8 µM); in data set [7] (read-out: Minimum inhibitory Concentration Gp Ia, Test Medium Comparison, B: Nutrient agar, average values), 0.4 µg/mL (≈ 0.987 µM). For the same molecule, the ED50 in data set [3] (Escherichia coli, po, 120 h, oral, 50% survival for 5 days, groups of 5 mice, read-out: Protective dose (PD50), E. coli Juhl) came out at 0.44 mg/kg; in data set [8], 0.13 mg/kg. Further, the “activity against the Gram- infection” value in data set [3] (in words) is “more active against the Gram- infection”. For the same molecule, in data set [4], the “metabolism in the rat” value was “metabolized in the rat to Compound No. 42”. Also, the AUC (as a rule, concentration integrated over time) in data set [5] (im, 20 mg/kg, AUC*) came to 233 µg·h/mL; in data set [5] (po, 20 mg/kg, AUC*), 270 µg·h/mL; in data set [5] (po, 100 mg/kg, AUC), 666 µg·h/mL. For the same molecule, the Cmax (usually the highest concentration seen after dosing) is 86 µg/mL in data set [5] (im, 20 mg/kg); 58 µg/mL in data set [5] (po, 20 mg/kg); 180 µg/mL in data set [5] (po, 100 mg/kg). For the same molecule, the half-life – broadly, the time in which the quantity being followed falls by half – in data set [5] (im, 20 mg/kg) is 1.2 h; in data set [5] (po, 20 mg/kg), 5.1 h; in data set [5] (po, 100 mg/kg), 2.5 h. Also, the “blood levels following oral administration” value in data set [6] is “exceptionally high blood levels”.
